Measured values: paper PMC3744471, “Mitochondria Are the Target Organelle of Differentiation-Inducing Factor-3, an Anti-Tumor Agent Isolated from Dictyostelium Discoideum” (PLoS ONE, 2013)

How the values were obtained:
LM8 cells = assay: Cell growth assay (Alamar blue), LM8; format: cell-based, mouse; conditions: for Effect on cell growth in LM8 cells: BODIPY-DIF-3 5–20 µM, CCCP 2–10 µM, 4 days; for IC50: Mus musculus, 72 h, LM8 cells, 3 days, Alamar blue
Description: HeLa, LM8, and 3T3-L1 cells were cultured for 3 days at 2.5–5×10^3 cells/well in 12-well plates with each well filled with 1 ml of DMEM-FBS (for HeLa and 3T3-L1) or MEM-α-FBS (for LM8) together with drugs at various concentrations. Then, the incubation media were discarded and the cells were washed with 1 ml of PBS(–) (20 mM phosphate buffered saline, pH 7.4) and incubated with 1 ml of fresh DMEM-FBS (HeLa and 3T3-L1) or MEM-α-FBS (LM8) containing 5% (v/v) of Alamar blue (a cell number indicator; Wako Pure Chemical Industries, Osaka, Japan) until the color changed. The relative cell number was assessed by measuring absorbance at 570 nm (reference at 595 nm) as described previously, [14]; DIF-related compounds and BODIPY-conjugated compounds hardly disturbed the cell number assessment with Alamar blue (data not shown), probably because the additive compounds were washed out when cell number was assessed. For determination of the 50% inhibitory concentration (IC50) of each drug, the cells were cultured for 3 days in the presence of each drug at various concentrations. Relative cell numbers were determined for each concentration for each drug and the IC50 was determined from the dose-response curves.
Supplementary file pone.0072118.s001.tif: Figure S1 Effects of BODIPY-DIF-3 and CCCP on cell growth, and cellular localization of BODIPY-DIF-3 in LM8 cells. (A) Cells were incubated for 4 days with 5–20 µM of BODIPY-DIF-3 (closed circles) or 2–10 µM of CCCP (closed triangles), and relative cell number was assessed by the use of Alamar blue. Data are the mean values and SD (bars) of three independent experiments. (B) Cells were incubated for 0.5 h or 3 days with 20 µM of BODIPY-DIF-3, washed free of the additive, and observed microscopically. (C) Cells were incubated for 0.5 h with BODIPY-DIF-3 (20 µM), Hoechst (0.1 µg/ml), and MitoTracker (0.1 µM), washed free of the additives, and observed by using a high-magnification fluorescence microscope. (D) Cells were incubated for 3 days with BODIPY-DIF-3 (20 µM) and then for 0.5 h with Hoechst (0.1 µg/ml) and MitoTracker (0.1 µM). Cells were washed free of the additives and observed by using a high-magnification fluorescence microscope. (TIF) Click here for additional data file.

[1] = tested on: cyclin D1 and cyclin D3 in HeLa cells; assay: Western blotting of cyclin D expression; format: cell-based, human; conditions: 20 h, DIF-3 20 µM, Bu-DIF-3 5–7.5 µM, BODIPY-DIF-3 20 µM, CCCP 10 µM, azide 0.01%
Description: HeLa cells were incubated for 20 h with 1 ml of DMEM-FBS containing the indicated additives in 12-well plates (2–4×10^5 cells/well), washed twice with PBS(–), harvested by adding 100–200 µl of an SDS-sample buffer solution (in proportion to cell density: relative cell number), sonicated (heated), and used for SDS-PAGE. Western blot transfer and immunoblotting were performed as described previously, by using a primary antibody for cyclin D1, cyclin D2, cyclin D3, or GAPDH, and a second antibody, an alkaline phosphatase-conjugated anti-mouse or anti-rabbit IgG antibody. […] Visualized protein bands were then digitized and quantified by using Adobe Photoshop CS4 (version 11.0) (Adobe, San Jose, CA, USA) and ImageJ Software (version 1.4) (http://rsb.info.nih.gov/ij/).

HeLa cells [2] = assay: Electron microscopy of organelle morphology; format: cell-based, human; conditions: 3 days, Bu-DIF-3 5 µM, BODIPY-DIF-3 20 µM
Description: HeLa cells were incubated for 3 days with 2 ml DMEM-FBS containing 0.2% DMSO and 5 µM Bu-DIF-3 or 20 µM BODIPY-DIF-3 in 35-mm plastic dishes at 2×10^4 cells/dish. The cells were fixed at 4°C for 30 min with PB (0.1 M phosphate buffer, pH 7.4) containing 2% paraformaldehyde and 2% glutaraldehyde and then with PB containing 2% glutaraldehyde at 4°C overnight. The cell samples were rinsed 3 times with PB for 30 min each, followed by post fixation with 2% OsO4 in PB at 4°C for 1 h. The samples were dehydrated through a graded ethanol (EtOH) series starting with 50% and 70% EtOH for 5 min each at 4°C, then 90% EtOH for 5 min at room temperature, followed by three changes of 100% EtOH for 5 min each at room temperature. The samples were then transferred to a resin (Quetol-812; Nisshin EM Co., Tokyo, Japan) and polymerized at 60°C for 48 h. Ultra-thin (70 nm) sections were cut with an ultramicrotome (ULTRACUT UCT; Leica, Wetzlar, Germany), collected onto copper grids, stained with 2% uranyl acetate at room temperature for 15 min, and then rinsed with distilled water. The sections were then stained with Lead stain solution (Sigma-Aldrich) at room temperature for 3 min. The sections were observed under a transmission electron microscope (JEM-1200Ex; JEOL Ltd., Tokyo, Japan) at an acceleration voltage of 80 kV. Digital images (2048×2048 pixels) were taken with a charge-coupled device camera (VELETA; Olympus Soft Imaging Solutions GmbH, Tokyo, Japan).

HeLa cells [3] = assay: Withdrawal of BODIPY-DIF-3: recovery of cell growth and mitochondrial morphology; format: cell-based, human; conditions: 20 µM 3 days, then 2 days DMSO
Description: In the assay of the effect of withdrawal of BODIPY-DIF-3 on cell growth (Figure 6A), HeLa cells were incubated for 3 days with 2 ml of DMEM-FBS containing 20 µM BODIPY-DIF-3 in 35-mm tissue culture dishes (Becton Dickinson, Franklin Lakes, NJ, USA) (5×10^3 cells/dish), washed 2 times with 2 ml of PBS(–), and further incubated for 2 days with 2 ml of DMEM-FBS containing 0.2% DMSO or 20 µM BODIPY-DIF-3; meanwhile, control cells were incubated for 5 days with 2 ml of DMEM-FBS containing 0.2% DMSO. Relative cell number was assessed as described above, and all experiments were performed in triplicate.

[4] = tested on: mitochondrial malate dehydrogenase (mMDH); set-up: method as in PMID 20173310; conditions: cited from earlier work
[5] = tested on: calmodulin-dependent cyclic nucleotide phosphodiesterase (PDE1); set-up: method as in PMID 15059913; conditions: cited from earlier work

Compound	Effect on cell growth in LM8 cells (LM8 cells)	IC50 (LM8 cells) [µM]	Expression of cyclin D1 [1]	Expression of cyclin D3 [1]	Lipid bodies in treated cells (HeLa cells [2])	Number of swollen mitochondria (HeLa cells [2])	Total number of mitochondria (HeLa cells [2])	Reversibility of action after withdrawal at Day 3 (HeLa cells [3])	Binding to and inhibition of mMDH [4]	Inhibition of PDE1 [5]
CCCCCC(=O)c1c(O)cc(OCCCCNC(=O)CCC2=[N+]3C(=Cc4c(C)cc(C)n4[B-]3(F)F)C=C2)c(Cl)c1O [BODIPY-DIF-3]	dose-dependently suppressed cell growth	12.2	significantly decreased	significantly decreased	many lipid bodies were observed	increase in the number of swollen mitochondria	tended to cause a decrease	reversible	–	–
CCCCCC(=O)c1c(O)cc(OCCCC)c(Cl)c1O [Bu-DIF-3, 1-(3-chloro-2,6-dihydroxy-4-butoxyphenyl)hexan-1-one]	–	2	significantly decreased	significantly decreased	many lipid bodies were observed	increase in the number of swollen mitochondria	tended to cause a decrease	–	–	–
N#CC(C#N)=NNc1cccc(Cl)c1 [CCCP, carbonyl cyanide m-chlorophenylhydrazone, reference compound]	dose-dependently suppressed cell growth	6.8	significantly suppressed	significantly suppressed	–	–	–	–	–	–
CCCCCC(=O)c1c(O)cc(OC)c(Cl)c1O [DIF-3, 1-(3-chloro-2,6-dihydroxy-4-methoxyphenyl)hexan-1-one]	–	15.5	significantly decreased	significantly decreased	–	–	–	–	neither binds nor inhibits mMDH	direct inhibitors of PDE1
